The subject of one data set is Male Wister rats. Briefly: Reversal of Formalin Induced Nociception. The note with it: rat, p.o., formalin 5% v/v subplantar. The class given is in vivo. The method, then: Reversal of Formalin Induced Nociception
The anti-nociceptive properties of compounds of this invention were evaluated using a model of pain: the Formalin Induced Nociception model. Male Wister rats (230-280 grams) obtained from N. I. N. (National Institute of Nutrition, Hyderabad, India) was used as experimental animals.
Rats were habituated for 20 minutes in the arena before the experiment was started. Duration of licks, bites and flinches were noted from 0-10 minutes and 20-35 minutes after administration of formalin, subplantar into the right hind paw at concentrations of 5% v/v. 50 μL of water for injection was injected into the right hind paw of the rats of the sham group. Compounds of this invention were administered orally prior to formalin administration.

Data set [1] concerns the target Human or Rat Nicotinic Acetylcholine α4β2 receptor (UniProt P09483+P12390). Briefly: Binding assay for Human or Rat Nicotinic Acetylcholine α4β2 receptor ([3H] Cytisine). The following applies: [3H] Cytisine 2.5 nM; rat brain frontal cortex or recombinant human cDNA expressed in CHO cells. The method, then: Binding assay for Human or Rat Nicotinic Acetylcholine α4β2 receptor
Compounds can be evaluated according to the following procedures.
Materials and Methods: • Receptor source: Rat brain frontal cortex or recombinant human cDNA expressed in CHO cells • Radioligand: [^3H] Cytisine 15-40 Ci/mmol • Final ligand concentration—[2.5 nM] • Non-specific determinant: Epibatidine-[0.1 μM] • Reference compound: Epibatidine • Positive control: Epibatidine Incubation Conditions:
Increasing concentrations of test compounds or standard were incubated with membrane receptors and radioligand in 120 mM NaCl, 2.5 mM KCl, 1 mM CaCl2, 1 mM MgCl2 and 50 mM TRIS-HCl (pH 7.4) for 60 minutes at room temperature. The reaction was terminated by rapid vacuum filtration onto the glass fiber filters. Radioactivity trapped onto the filters was determined and compared to the control values in order to ascertain any interactions of the test compound(s) with either cloned human or rat receptor binding site.
Literature Reference: Bunnelle W. H., Daanen J. F., Ryther K. B., Schrimpf M. R., Dart M. J., Gelain A., Meyer M. D., Frost J. M., Anderson D. J., Buckley M., Curzon P., Cao Y-J., Puttfarcken P., Searle X., Ji J., Putman C. B., Surowy C., Toma L. and Barlocco D. Structure-Activity Studies and Analgesic Efficacy of N-(3-Pyridinyl)-Bridged Bicyclic Diamines, Exceptionally Potent Agonists at Nicotinic Acetylcholine Receptors. J. Med. Chem. 2007, 50, […].

Data set [2] is described as follows: Rodent Pharmacokinetic Study. The following applies: Wistar, in vivo, Wister rat male. The method, then: Rodent Pharmacokinetic Study
Male wistar rats (230-280 grams) obtained from NIN (National Institute of Nutrition, Hyderabad, India) were used as an experimental animal. Three to five animals were housed in each cage. Animals were kept fasted over night and maintained on a 12 hours light/dark cycle. […]
At each time point blood was collected by jugular vein. Plasma was stored frozen at −20° C. until analysis. The concentrations of the NCE compound in plasma were determined using LC-MS/MS method. Schedule time points: Pre dose 0.25, 0.5, 1, 1.5, 2, 3, 4, 6, 8, 10, 12 and 24 hours after dosing (n=3). The NCE compounds were quantified in plasma by validated LC-MS/MS method using solid phase extraction technique. NCE compounds were quantified in the calibration range of 1-2000 ng/mL in plasma. Study samples were analyzed using calibration samples in the batch and quality control samples spread across the batch. Pharmacokinetic parameters Cmax, Tmax, AUCs, T112 and Bioavailability were calculated by non-compartmental model using software WinNonlin version 5.0.1.

In data set [3] the target is T1, recombinant human α4β2 nicotinic acetylcholine receptor (Homo sapiens, UniProt P17787+P43681).
T1 construct: expressed in transfected cells
T1 sequence (P43681 29-627): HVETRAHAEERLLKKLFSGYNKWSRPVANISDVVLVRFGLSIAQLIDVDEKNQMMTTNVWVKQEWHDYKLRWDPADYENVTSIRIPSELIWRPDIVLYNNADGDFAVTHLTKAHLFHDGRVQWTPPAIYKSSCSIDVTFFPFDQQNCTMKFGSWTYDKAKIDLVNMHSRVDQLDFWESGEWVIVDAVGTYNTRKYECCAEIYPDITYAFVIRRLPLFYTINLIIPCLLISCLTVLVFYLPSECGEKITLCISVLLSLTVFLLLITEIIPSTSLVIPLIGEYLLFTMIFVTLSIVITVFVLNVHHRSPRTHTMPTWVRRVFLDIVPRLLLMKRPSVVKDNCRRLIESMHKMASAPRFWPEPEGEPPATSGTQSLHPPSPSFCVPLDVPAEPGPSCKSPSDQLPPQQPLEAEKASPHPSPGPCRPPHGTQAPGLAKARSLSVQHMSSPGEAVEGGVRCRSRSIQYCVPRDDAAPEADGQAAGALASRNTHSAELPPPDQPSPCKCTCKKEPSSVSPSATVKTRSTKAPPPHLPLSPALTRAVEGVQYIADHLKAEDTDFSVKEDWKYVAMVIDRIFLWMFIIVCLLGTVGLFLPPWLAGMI
T1 sequence (P17787 26-502): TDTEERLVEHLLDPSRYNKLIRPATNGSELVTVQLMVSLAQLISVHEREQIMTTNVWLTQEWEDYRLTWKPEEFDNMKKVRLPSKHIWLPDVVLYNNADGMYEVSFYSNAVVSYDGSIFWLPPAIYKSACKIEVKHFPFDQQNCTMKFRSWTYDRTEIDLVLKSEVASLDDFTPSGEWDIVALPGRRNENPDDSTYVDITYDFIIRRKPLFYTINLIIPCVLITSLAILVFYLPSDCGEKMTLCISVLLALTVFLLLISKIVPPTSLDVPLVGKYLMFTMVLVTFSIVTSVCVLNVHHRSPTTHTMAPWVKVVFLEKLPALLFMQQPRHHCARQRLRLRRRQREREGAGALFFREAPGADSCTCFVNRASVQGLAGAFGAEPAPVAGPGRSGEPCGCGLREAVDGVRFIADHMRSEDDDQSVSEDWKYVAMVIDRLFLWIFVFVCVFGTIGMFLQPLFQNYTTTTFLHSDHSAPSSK
Briefly: Determination of IC50 and Kb values, aequorin luminescence assay in CHO cells. The following applies: antagonist mode, fixed concentration of agonist epibatidine, CHO cells, luminescence; read-out: Kb. The class given is cell-based. The method, then: Determination of IC50 and Kb Values for Nicotinic Acetylcholine α4β2 Receptor Ligands
A stable CHO cell line expressing recombinant human α4β2 nicotinic acetylcholine receptor transiently expressing aequorin protein was used for cell-based assay. The assay offers a non-radioactive based approach to determine binding of a compound to ligand gated ion channels. In this specific assay, the level of intracellular calcium which is modulated by activation or inhibition of the channel is measured. Both the channel and aequorin genes are expressed at high level under the control of powerful CMV promotor.
The above cells were grown in 96 well clear bottom white plates in Hams F12 medium containing 10% fetal bovine serum (FBS). Prior to the addition of compounds and/or agonist, cells were serum starved for six hours. Coelentarazine (a prosthetic group for aequorin protein) was added in the medium containing 0.1% dialyzed serum and incubated overnight at 27° C. Cells were washed with assay buffer and increasing concentration of the test compound or standard were added to the plate for antagonist mode. A fixed concentration of the agonist (eipbatidine) was injected into the plate and luminescence was measured for 10 seconds. For evaluation of the compound in agonist mode, increasing concentration of the standard or test compound was injected and the luminescence was measured. Luminescence units were plotted against the compound concentrations using Graphpad software. IC50 values of the compounds were defined as the concentration required in reducing the luminescent units by 50%. The Kb values were calculated by feeding the concentration of the agonist used in the assay and its EC50 value in the same software.
Literature References: Karadsheh M. S., Shah M. S., Tang X., Macdonald R. L. and Stitzel J. A. Functional characterization of mouse α4β2 nicotinic acetylcholine receptors stably expressed in HEK293T cells. J. Neurochem. 2004, 91, 1138-1150.

As for `Cl.c1cncc(OCC2CC3CC3N2)c1` (stereo not drawn) [Example 1, 3-(Pyridin-3-yloxymethyl)-2-azabicyclo[3.1.0]hexane hydrochloride], in the data set with Male Wister rats, the “Dose (reversal of formalin induced nociception)” value is given as “≦10 mg/kg, p.o”. Besides, the Ki (commonly a dissociation constant, usually derived from enzyme kinetics or from competition with a known ligand) in data set [1] is 7.7 nM. Moreover, in data set [2] (iv, I.V, 5 mg/kg), the area under the curve AUC(0-t) (in general, exposure summed from dosing to a finite time, without extrapolation to infinity) is 4050 ± 679 ng·h/mL; the maximum concentration (Cmax) (as a rule, the maximum level reached in the sampled fluid or tissue) was 3180 ± 38 ng/mL; the Tmax (as a rule, the time from dosing to the highest level) was found to be 4.8 min; the half-life – broadly, how long it takes for the measured level to halve – was 116 ± 37.2 min. In addition, the bioavailability (in general, the share of a dose that reaches the circulation, judged against a reference dose that is usually intravenous) in data set [2] (po, P.O 15 mg/kg vs I.V 5 mg/kg) was 92 ± 16%. Moreover, in data set [2] (po, P.O, 15 mg/kg), the AUC(0-t) was 10900 ± 646 ng·h/mL, the peak level (Cmax) was 7610 ± 1660 ng/mL, the time to peak (Tmax) was found to be 15 min and the half-life is 251 ± 91.8 min. Moreover, the antagonist dissociation constant (Kb) (in general, the affinity of an antagonist, worked out from how it opposes an agonist) in data set [3] stood at 7.1 nM.
Regarding `Cl.Cl.Clc1cncc(OCC2CC3CC3N2)c1` (stereo not drawn) [Example 7, 3-(5-Chloropyridin-3-yloxymethyl)-2-azabicyclo[3.1.0]hexane dihydrochloride], the “Dose (reversal of formalin induced nociception)” value in the data set on Male Wister rats was “≦30 mg/kg, p.o”. The Ki in data set [1] is 0.19 nM. Further, in data set [2] (iv, I.V, 5 mg/kg), the AUC(0-t) was 2390 ± 196 ng·h/mL, the peak concentration (Cmax) stood at 2340 ± 388 ng/mL, the time to peak (Tmax) is 4.8 min and the half-life was 51.6 ± 1.8 min. In addition, the bioavailability in data set [2] (po, P.O 5 mg/kg vs I.V 5 mg/kg) stood at 50 ± 13%. In data set [2] (po, P.O, 5 mg/kg), the AUC(0-t) is 1190 ± 201 ng·h/mL, the highest concentration (Cmax) came out at 949 ± 200 ng/mL, the Tmax was 15 min and the half-life is 64.2 ± 2.4 min. The antagonist equilibrium constant (Kb) in data set [3] was found to be 17.8 nM.

These data come from patent publication US8735423B2, “Bicyclic compounds as α4β2 nicotinic acetylcholine receptor ligands” (priority 2009, dated 2014).
